Laboratory results published in ChEMBL document CHEMBL1148520, “5-(Dimethoxymethyl)-2'-deoxyuridine: a novel gem diether nucleoside with anti-orthopoxvirus activity” (J Med Chem, 2006).

test system: Vaccinia virus; experiment: Antiviral activity against vaccinia virus Copenhagen measured as cytopathogenicity in HFF cells; assay type: functional, organism-based; conditions: Orthopoxvirus vaccinia

Row | SMILES | EC50
1 | CCOC(OCC)c1cn(C2C[C@H](OC(C)=O)[C@@H](COC(C)=O)O2)c(=O)[nH]c1=O (some centres not stated) | 38 µM
2 | COC(OC)c1cnc(O)nc1O | > 300 µM
3 | CC(=O)OC[C@H]1OC(n2cc(C3OCCCO3)c(=O)[nH]c2=O)C[C@@H]1OC(C)=O (some centres not stated) | > 300 µM
4 | CC(=O)OC[C@H]1OC(n2cc(C=O)c(=O)[nH]c2=O)C[C@@H]1OC(C)=O (some centres not stated) | > 300 µM
5 | COC(OC)c1cn(C2C[C@H](OC(C)=O)[C@@H](COC(C)=O)O2)c(=O)[nH]c1=O (some centres not stated) | 296 µM
6 | COC(OC)c1cn(C2C[C@H](O)[C@@H](CO)O2)c(=O)[nH]c1=O (some centres not stated) | 8.4 µM
7 | O=Cc1cn([C@H]2C[C@H](O)[C@@H](CO)O2)c(=O)[nH]c1=O | > 300 µM
8 | CC(=O)OC[C@H]1OC(n2cc(C3OCCO3)c(=O)[nH]c2=O)C[C@@H]1OC(C)=O (some centres not stated) | > 300 µM
9 | CCOC(OCC)c1cn(C2C[C@H](O)[C@@H](CO)O2)c(=O)[nH]c1=O (some centres not stated) | > 60 µM
10 | O=c1[nH]c(=O)n(C2CC(O)[C@@H](CO)O2)cc1C1OCCO1 (single isomer, unassigned) | > 300 µM
11 | O=c1[nH]c(=O)n(C2CC(O)[C@@H](CO)O2)cc1C1OCCCO1 (single isomer, unassigned) | > 300 µM
12 | Nc1ccn(C[C@@H](CO)OCP(=O)(O)O)c(=O)n1 [CIDOFOVIR] | 6.9 µM
